Test system: inflammation/edema induced by carrageenan-injection into the footpads of Sprague Dawley (SD) rats
Assay: Carrageenan-induced inflammation rat paw test (Example 3)
Details: at necropsy about 24 h post-carrageenan, N=10, SE in line below
Description: Efficacy evaluation was based on gait analysis, von Frey absolute thresholds and ankle caliper differentials recorded over 24 h after initial carrageenan injection, and paw differential weights following euthanasia of the test subjects.
Experimental Design. Male Sprague Dawley (Envigo RMS, Inc., Indianapolis) were weighed on Day 1 (mean 285 g) and randomized by body weight into treatment groups. On Day 0-1, animals in Groups 3-11 were dosed with topical compounds on 2-minute intervals according to the dose schedules in Table 10. […] Gait and von Frey analyses were conducted at time points of 2 h, 4 h, 6 h, 8 h, and 24 h post-carrageenan injection; ankle caliper measurements were taken immediately following gait assessment. […]
Gait Analysis. […] Gait was scored visually as follows (descriptions refer to diseased leg): • 0=Normal, approximately equal ink staining to normal paw. • 1=Slight limp/pain. […]
Testing began with three applications of the 4.31 hair. […] Responses were recorded as either a 0 (no response) or a 1 (response). […]
Testing was done on hind (heel) portions of the hind paw. Testers monitored the animals for hyper-responding or freezing, in which case animals were left alone until calm.

COc1ccc2cc([C@H](C)C(=O)O)ccc2c1 [Naproxen (oral), Naproxen]
Paw Weight Difference (R − L): ‡0.410 g
Paw Weight Difference (R − L) (listed as oral Naproxen): significantly reduced
